Results taken from ChEMBL document CHEMBL1136300, “Structure-activity relationship studies on 2-heteroaryl-4-arylimidazoles NPY5 receptor antagonists” (Bioorg Med Chem Lett, 2003).
Calls of active or inactive are those of the source. The rule behind the calls is not given here.

Key:
HMCB cell line = test: Compound was tested for [Ca2+] mobilization in NPY5 transfected human Bowes melanoma (HMCB) cell line.; type: functional, cell-based
[1] = molecular target: T1, Neuropeptide Y receptor type 5 (Homo sapiens, UniProt Q15761); test: Binding affinity towards human neuropeptide Y receptor type 5 using [125I]-PYY as radioligand in baculovirus-infected Sf9 cells
T1 sequence (Q15761 whole entry): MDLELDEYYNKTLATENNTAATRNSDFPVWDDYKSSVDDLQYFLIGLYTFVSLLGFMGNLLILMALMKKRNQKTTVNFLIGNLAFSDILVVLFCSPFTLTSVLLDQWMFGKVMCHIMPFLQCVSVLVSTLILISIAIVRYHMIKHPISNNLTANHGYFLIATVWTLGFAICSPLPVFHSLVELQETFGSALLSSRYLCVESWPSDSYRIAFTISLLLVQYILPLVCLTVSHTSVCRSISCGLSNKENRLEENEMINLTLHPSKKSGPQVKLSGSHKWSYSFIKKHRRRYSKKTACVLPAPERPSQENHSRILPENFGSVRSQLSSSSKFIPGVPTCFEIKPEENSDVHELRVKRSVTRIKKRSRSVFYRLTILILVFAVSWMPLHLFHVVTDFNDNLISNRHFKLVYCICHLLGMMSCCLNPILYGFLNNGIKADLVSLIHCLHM

Rattus norvegicus [2] = species on record: Rattus norvegicus; test: Food intake was measured for a 3-h period in 24-h food deprived rats;+/+ =significant reduction in food intake; type: functional, organism-based
Rattus norvegicus [3] = test: Overnight food intake was measured in rat model in which compound was dosed 2 hr prior to onset of the dark cycle;- =no significant reduction in food intake; type: functional, organism-based
Rattus norvegicus [4] = test: Locomotor activity in male Sprague-Dawley rats at 40 mg/kg oral dose; type: functional, organism-based; set-up: dose 40 mg/kg
Rattus norvegicus [5] = species on record: Rattus norvegicus; test: Food intake was measured for a 3-h period in 24-h food deprived rats;+/- =significant reduction in food intake/- =no significant reduction in food intake; type: functional, organism-based
Rattus norvegicus [6] = test: Overnight food intake was measured in rat model in which compound was dosed 2 hr prior to onset of the dark cycle;+/- =significant reduction in food intake; type: functional, organism-based
Rattus norvegicus [7] = test: Concentration of compound in brain was determined following a dose of 40 mg/kg administered orally at 4 hr; type: functional, organism-based; set-up: dose 40 mg/kg
Rattus norvegicus [8] = test: Concentration of compound in brain was determined following a dose of 40 mg/kg administered orally at 8 hr; type: functional, organism-based; set-up: dose 40 mg/kg
Rattus norvegicus [9] = test: Concentration of compound in plasma was determined following a dose of 40 mg/kg administered orally at 1 hr; type: functional, organism-based; set-up: dose 40 mg/kg
Rattus norvegicus [10] = test: Concentration of compound in plasma was determined following a dose of 40 mg/kg administered orally at 2 hr; type: functional, organism-based; set-up: dose 40 mg/kg
Rattus norvegicus [11] = test: Concentration of compound in plasma was determined following a dose of 40 mg/kg administered orally at 4 hr; type: functional, organism-based; set-up: dose 40 mg/kg
Rattus norvegicus [12] = test: Concentration of compound in plasma was determined following a dose of 40 mg/kg administered orally at 8 hr; type: functional, organism-based; set-up: dose 40 mg/kg
Rattus norvegicus [13] = test: Concentration of compound in Cerebrospinal fluid(CSF) was determined following a dose of 40 mg/kg administered orally at 8 hr; type: functional, organism-based; set-up: dose 40 mg/kg
Rattus norvegicus [14] = test: Concentration of compound in brain was determined following a dose of 40 mg/kg administered orally at 1 hr; type: functional, organism-based; set-up: dose 40 mg/kg
Rattus norvegicus [15] = test: Overnight food intake was measured in rat model in which compound was dosed 2 hr prior to onset of the dark cycle; - =no significant reduction in food intake; type: functional, organism-based
Rattus norvegicus [16] = species on record: Rattus norvegicus; test: Ratio of the concentrations of compound in Brain to that of Plasma was determined at 1 hr; type: functional
Rattus norvegicus [17] = species on record: Rattus norvegicus; test: Ratio of the concentrations of compound in Brain to that of Plasma was determined at 4 hr; type: functional
Rattus norvegicus [18] = species on record: Rattus norvegicus; test: Ratio of the concentrations of compound in Brain to that of Plasma was determined at 8 hr; type: functional
Rattus norvegicus [19] = species on record: Rattus norvegicus; test: Ratio of the concentrations of compound in brain to that of Plasma was determined at 2 hr; type: functional
Rattus norvegicus [20] = test: Concentration of compound in brain was determined following a dose of 40 mg/kg administered orally at 2 hr; type: functional, organism-based; set-up: dose 40 mg/kg
Rattus norvegicus [21] = species on record: Rattus norvegicus; test: Food intake was measured for a 3-h period in 24-h food deprived rats;+/- =significant reduction in food intake / - =no significant reduction in food intake; type: functional, organism-based

Row | SMILES | EC50 (HMCB cell line) [nM] | Ki [1] [nM] | also measured
1 | COc1ccc(-c2c[nH]c(-c3cccnc3)n2)cc1OC | 723 | 148 | 
2 | c1cncc(-c2nc(C3CCCCC3)c[nH]2)c1 | 36 | 231 | 
3 | c1ccc(-c2c[nH]c(-c3ccccn3)n2)cc1 |  | 1450 | 
4 | FC(F)(F)Oc1ccc(-c2c[nH]c(-c3cccnc3)n2)cc1 |  | 210 | 
5 | c1ccc(-c2c[nH]c(-c3ccncc3)n2)cc1 |  | 1530 | 
6 | Clc1ccc(-c2c[nH]c(-c3cc4ccccc4cn3)n2)cc1Cl |  | 4770 | 
7 | N#Cc1ccc(-c2c[nH]c(-c3cccnc3)n2)cc1 |  | 3000 | 
8 | Clc1ccc(-c2c[nH]c(-c3cnc4ccccc4c3)n2)cc1Cl |  | > 10000 | 
9 | Clc1ccc(-c2c[nH]c(-c3nccc4ccccc34)n2)cc1Cl | 17 | 116 | 
10 | COc1cccc(-c2c[nH]c(-c3cccnc3)n2)c1 | 45 | 56 | 
11 | c1ccc(-c2c[nH]c(-c3cccnc3)n2)cc1 |  | 525 | 
12 | Cc1[nH]c(-c2cccnc2)nc1-c1ccc(Cl)cc1 |  | 69 | 

These reach a lower Ki [1]. Values come first.

Row | EC50 (HMCB cell line) [nM] | Ki [1] [nM] | SMILES | also measured
13 |  | 40 | Clc1ccc(-c2c[nH]c(-c3cnccn3)n2)cc1Cl | 
14 | 52 | 40 | Cc1ccccc1-c1c[nH]c(-c2cccnc2)n1 | 
15 |  | 37 | FC(F)(F)c1ccc(-c2c[nH]c(-c3cccnc3)n2)cc1 | 
16 |  | 34 | Fc1ccc(-c2c[nH]c(-c3cccnc3)n2)cc1F | 
17 |  | 34 | c1ccc(-c2c[nH]c(-c3ccccc3)n2)cc1 | 
18 |  | 30 | Clc1ccc(-c2c[nH]c(-c3ccccn3)n2)cc1Cl | 
19 | 39 | 27 | FC(F)(F)c1ccccc1-c1c[nH]c(-c2cccnc2)n1 | 
20 | 15 | 21 | Clc1ccccc1-c1c[nH]c(-c2cccnc2)n1 | 
21 | 40 | 19 | Cc1[nH]c(-c2cccnc2)nc1-c1cccc(Cl)c1 | 
22 |  | 16 | Clc1ccc(-c2c[nH]c(-c3cccnc3)n2)cc1 | Activity (Rattus norvegicus [2]): Active; Activity (Rattus norvegicus [3]): inactive; Locomotor activity (Rattus norvegicus [4]): Active
23 | 24 | 14 | Cc1cccc(-c2c[nH]c(-c3cccnc3)n2)c1 | 
24 |  | 8 | Clc1cccc(-c2c[nH]c(-c3cccnc3)n2)c1 | Activity (Rattus norvegicus [5]): inactive; Concentration (Rattus norvegicus [7]): 29 µM; Concentration (Rattus norvegicus [8]): 4 µM; Concentration (Rattus norvegicus [9]): 10 µM; Concentration (Rattus norvegicus [10]): 11 µM; Concentration (Rattus norvegicus [11]): 6.2 µM; Concentration (Rattus norvegicus [12]): 1.3 µM; Concentration (Rattus norvegicus [13]): 0.011 µM; Concentration (Rattus norvegicus [14]): 45 µM; Activity (Rattus norvegicus [15]): inactive; Ratio (Rattus norvegicus [16]): 4.4; Ratio (Rattus norvegicus [17]): 4.8; Ratio (Rattus norvegicus [18]): 5.3; Ratio (Rattus norvegicus [19]): 5.1; Concentration (Rattus norvegicus [20]): 56 µM
25 | 13 | 4.9 | FC(F)(F)Oc1cccc(-c2c[nH]c(-c3cccnc3)n2)c1 | 
26 |  | 4 | Clc1ccc(-c2c[nH]c(-c3cccnc3)n2)cc1Cl | Activity (Rattus norvegicus [21]): inactive
27 |  | 3.5 | Clc1ccc(-c2c[nH]c(-c3ccncc3)n2)cc1Cl | 
28 | 3.2 | 1.6 | FC(F)(F)c1cccc(-c2c[nH]c(-c3cccnc3)n2)c1 | Activity (Rattus norvegicus [5]): inactive; Activity (Rattus norvegicus [6]): Active; Locomotor activity (Rattus norvegicus [4]): Active
